This test has as its target Aldo-keto reductase family 1 member B1 (Rattus norvegicus, UniProt P07943). Briefly: Inhibition of rat lens aldose reductase.
`COc1c(-c2ccc(O)c(O)c2)oc2c(OC)c(O)cc(O)c2c1=O` showed an IC50 of 0.24 µM. With `COc1cc(O)cc2oc(-c3ccccc3)cc(=O)c12` the figure was 1000 µM; with `COc1cc(-c2cc(=O)c3c(OC)c(OC)c(OC)c(OC)c3o2)ccc1O`, 18.6 µM; with `COc1c(OC)c(OC)c2c(=O)cc(-c3ccc(O)c(O)c3)oc2c1OC`, 0.0324 µM.

In the case of `COc1cc(-c2cc(=O)c3c(O)c(O)c(O)c(OC)c3o2)ccc1O`, inhibition was half-maximal at 1.2 µM (IC50). Then `COc1cc(O)c2c(=O)cc(-c3ccc(O)c(O)c3)oc2c1O`, with 0.229 µM.

`COc1c(O)c(OC)c2c(=O)cc(-c3ccccc3)oc2c1OC` had an IC50 of 288 µM.

The compound `O=c1cc(-c2ccccc2O)oc2cc(O)ccc12` showed an IC50 of 1.66 µM. With `COc1cc2oc(-c3ccc(O)c(O)c3)c(C(C)=O)c(=O)c2c(OC)c1OC` the figure was 8.91 µM; with `COc1cc(-c2cc(=O)c3c(O)c(OC)c(OC)cc3o2)ccc1OC1O[C@H](CO)[C@@H](O)[C@H](O)[C@H]1O` (some centres not stated), 13.2 µM. Turning to `COc1c(O)c(OC)c2oc(-c3ccc(O)cc3)cc(=O)c2c1O`, the IC50 is 0.407 µM. With `COc1cc2oc(-c3ccc(O)c(O)c3)cc(=O)c2c(O)c1O` the figure was 0.302 µM; with `COc1cc(OC)c2c(=O)c(OC)c(-c3ccc(O)c(O)c3)oc2c1OC`, 0.17 µM; with `COc1c(O)c(Cc2ccccc2)c2oc(-c3ccc(O)c(O)c3)cc(=O)c2c1O`, 0.0339 µM.

With `COc1c(O)c(OC)c2c(=O)cc(-c3ccc(O)c(O)c3)oc2c1OC`, half-maximal inhibition (IC50) required 0.035 µM. With `COc1c(O)cc(O)c2c(=O)cc(-c3ccc(O)c(O)c3)oc12` the figure was 0.282 µM; with `COc1c(-c2ccc(O)c(O)c2)oc2c(OC)c(O)cc(OC)c2c1=O`, 0.282 µM; with `COc1c(OC(C)=O)c(OC(C)=O)c(OC(C)=O)c2c(=O)cc(-c3ccc(OC(C)=O)c(OC(C)=O)c3)oc12`, 0.302 µM. With `COc1cc(-c2cc(=O)c3c(O)c(OC)c(O)c(OC)c3o2)ccc1OC1O[C@H](CO)[C@@H](O)[C@H](O)[C@H]1O` (some centres not stated) the figure was 18.2 µM; with `COc1cc(-c2cc(=O)c3c(O)c(OC)c(OC4O[C@H](CO)[C@@H](O)[C@H](O)[C@H]4O)c(OC)c3o2)ccc1O` (some centres not stated), 20.9 µM. Then `COc1cc2oc(-c3ccc(O)c(O)c3)c(OC)c(=O)c2c(OC)c1OC`, with 0.269 µM; and `COc1cc(O)c2c(=O)cc(-c3cc(O)c(OC)cc3OC)oc2c1`, with 316 µM. As for `COc1cc(-c2cc(=O)c3c(OC)c(O)c(OC)c(OC)c3o2)ccc1O`, the IC50 was 6.31 µM. Then `COc1cc2oc(-c3ccc(O)c(O)c3)c(OC)c(=O)c2c(OC)c1O`, with 0.302 µM; and `COc1c(O)c(O)c(O)c2c(=O)cc(-c3ccccc3)oc12`, with 8.13 µM; and `COc1c(O)c(O)c2c(=O)cc(-c3ccccc3)oc2c1OC`, with 8.39 µM. With `COc1cc(-c2cc(=O)c3c(O)c(O)c(OC)c(OC)c3o2)ccc1O` the figure was 110 µM; with `COc1c(O)c(O)c2c(=O)cc(-c3ccc(O)cc3)oc2c1OC`, 0.851 µM; with `COc1c(-c2ccc(O)c(O)c2)oc2cc(O)c(O)c(O)c2c1=O`, 0.0575 µM. Then `COc1c(O)c(O)c2c(=O)cc(-c3ccc(O)c(O)c3)oc2c1OC`, with 0.0646 µM; and `COc1c(O)cc(OC)c2c(=O)cc(-c3ccc(O)c(O)c3)oc12`, with 0.0741 µM; and `COc1c(O)c(O)c(O)c2c(=O)cc(-c3ccc(O)c(O)c3)oc12`, with 0.12 µM. For the compound `COc1cc2oc(-c3ccc(O)c(O)c3)cc(=O)c2c(OC)c1O`, half-maximal inhibition (IC50) required 0.141 µM.

For the compound `COc1cc(OC)c2c(=O)cc(-c3ccc(O)c(O)c3)oc2c1O`, inhibition was half-maximal at 0.162 µM (IC50). Then `C[C@H]1OC(Oc2c(-c3ccc(O)c(O)c3)oc3cc(O)cc(O)c3c2=O)[C@@H](O)[C@@H](O)[C@@H]1O` (some centres not stated), with 1.17 µM. Turning to `O=c1cc(-c2ccc(O)cc2)oc2ccc(O)cc12`, the IC50 was 5.25 µM. For the compound `COc1cc2oc(-c3ccc(O)c(O)c3)c(OC)c(=O)c2c(O)c1O`, the half-inhibitory concentration (IC50) was 0.813 µM. With `COc1ccc(-c2cc(=O)c3c(O)c(OC)c(O)c(OC)c3o2)cc1OC` the figure was 29.5 µM; with `COc1cc2oc(-c3ccc(OC4O[C@H](CO)[C@@H](O)[C@H](O)[C@H]4O)cc3)cc(=O)c2c(O)c1OC` (some centres not stated), 16.2 µM; with `COc1cc2oc(-c3ccc(OC4O[C@H](CO)[C@@H](O)[C@H](O)[C@H]4O)c(O)c3)cc(=O)c2c(O)c1OC` (some centres not stated), 8.2 µM. With `COc1c(O)c(O)c(O)c2c(=O)cc(-c3ccc(O)cc3)oc12` the figure was 1.2 µM. Then `COc1cc(O)c2c(=O)cc(-c3cc(OC)c(O)cc3OC)oc2c1`, with 1000 µM. For `O=c1cc(-c2ccc(O)cc2O)oc2cc(O)ccc12`, half-maximal inhibition (IC50) required 2.29 µM. With `COc1cc(OC)c2c(=O)cc(-c3ccc(O)c(O)c3)oc2c1OC` the figure was 0.0447 µM; with `COc1cc2oc(-c3ccc(O)c(O)c3)cc(=O)c2c(OC)c1OC`, 0.0912 µM; with `COc1cc(-c2cc(=O)c3c(O)c(OC)c(OC)c(OC)c3o2)ccc1O`, 45.7 µM. With `COc1cc(O)c2c(=O)cc(-c3ccc(O)c(O)c3)oc2c1OC` the figure was 0.0776 µM; with `O=c1cc(-c2ccc(O)c(O)c2)oc2cc(O)c(O)c(O)c12` [6-HYDROXYLUTEOLIN], 0.204 µM; with `COc1c(O)cc2oc(-c3ccc(O)c(O)c3)c(OC)c(=O)c2c1O` [AXILLARIN], 0.028 µM. With `COc1cc2oc(-c3ccc(O)c(O)c3)c(OC)c(=O)c2c(O)c1OC` [CHRYSOSPLENOL D] the figure was 0.348 µM. Take `COc1cc(-c2cc(=O)c3c(O)c(OC)c(OC)cc3o2)ccc1O` [CIRSILENEOL]: 6.76 µM corresponded to half-maximal inhibition (IC50). `COc1cc2oc(-c3ccc(O)c(O)c3)cc(=O)c2c(O)c1OC` [CIRSILIOL]: the IC50 was 0.17 µM. With `COc1cc2oc(-c3ccc(O)cc3)cc(=O)c2c(O)c1OC` [CIRSIMARITIN] the figure was 1.41 µM; with `COc1ccc(-c2cc(=O)c3c(O)c(OC)c(O)c(OC)c3o2)cc1` [NEVADENSIN], 7.24 µM; with `COc1c(OC)c(O)c2c(=O)cc(-c3ccc(O)c(O)c3)oc2c1OC` [SIDERITIFLAVONE], 0.0389 µM. With `COc1cc(-c2cc(=O)c3c(O)c(OC)c(O)c(OC)c3o2)ccc1O` [SUDACHITIN] the figure was 4.47 µM. Then `COc1c(OC)c(O)c2c(=O)cc(-c3ccc(O)cc3)oc2c1OC` [XANTHOMICROL], with 0.537 µM.

A word on the IC50: it is the concentration needed to halve the response being measured. Read a high IC50 as weaker potency.

Source of the values: ChEMBL document CHEMBL1155792, “QSAR prediction of inhibition of aldose reductase for flavonoids” (Bioorg Med Chem, 2008).
